Reference: ChEMBL document CHEMBL1148343, “Fragment-based drug discovery” (J Med Chem, 2004)

Assays:
[1] = biological target: DNA topoisomerase 2-beta (Homo sapiens) (UniProt Q02880); experiment: (§1) Maximal non-effective concentration against bacterial DNA gyrase
[2] = system: Nucleic Acid; experiment: as §1; assay type: nucleic-acid assay
[3] = biological target: Matrix metalloproteinase-9 (Homo sapiens) (UniProt P14780); experiment: Inhibition of gelatinase B, matrix metalloprotease-9 (MMP-9) at 5000 uM
Chain of Matrix metalloproteinase-9 (Homo sapiens) (P14780 whole entry): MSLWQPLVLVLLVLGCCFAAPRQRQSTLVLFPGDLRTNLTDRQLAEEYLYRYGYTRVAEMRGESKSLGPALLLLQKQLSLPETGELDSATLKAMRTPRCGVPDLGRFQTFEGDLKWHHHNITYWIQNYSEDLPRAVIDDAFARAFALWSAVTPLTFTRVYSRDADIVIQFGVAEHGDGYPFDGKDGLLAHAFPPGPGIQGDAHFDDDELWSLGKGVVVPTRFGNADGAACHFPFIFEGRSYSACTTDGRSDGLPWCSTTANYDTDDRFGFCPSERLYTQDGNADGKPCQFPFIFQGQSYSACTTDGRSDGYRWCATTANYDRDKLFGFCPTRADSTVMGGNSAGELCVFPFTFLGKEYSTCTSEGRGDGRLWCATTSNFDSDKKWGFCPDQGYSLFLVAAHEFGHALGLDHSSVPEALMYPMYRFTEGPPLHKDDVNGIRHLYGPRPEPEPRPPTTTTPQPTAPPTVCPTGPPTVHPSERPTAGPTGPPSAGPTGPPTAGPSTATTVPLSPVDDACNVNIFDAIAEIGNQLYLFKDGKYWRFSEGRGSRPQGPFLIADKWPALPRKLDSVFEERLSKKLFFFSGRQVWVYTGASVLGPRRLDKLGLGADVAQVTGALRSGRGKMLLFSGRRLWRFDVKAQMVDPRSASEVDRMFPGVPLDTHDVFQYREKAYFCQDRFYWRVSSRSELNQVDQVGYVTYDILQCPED

Chain of DNA topoisomerase 2-beta (Homo sapiens) (Q02880 whole entry): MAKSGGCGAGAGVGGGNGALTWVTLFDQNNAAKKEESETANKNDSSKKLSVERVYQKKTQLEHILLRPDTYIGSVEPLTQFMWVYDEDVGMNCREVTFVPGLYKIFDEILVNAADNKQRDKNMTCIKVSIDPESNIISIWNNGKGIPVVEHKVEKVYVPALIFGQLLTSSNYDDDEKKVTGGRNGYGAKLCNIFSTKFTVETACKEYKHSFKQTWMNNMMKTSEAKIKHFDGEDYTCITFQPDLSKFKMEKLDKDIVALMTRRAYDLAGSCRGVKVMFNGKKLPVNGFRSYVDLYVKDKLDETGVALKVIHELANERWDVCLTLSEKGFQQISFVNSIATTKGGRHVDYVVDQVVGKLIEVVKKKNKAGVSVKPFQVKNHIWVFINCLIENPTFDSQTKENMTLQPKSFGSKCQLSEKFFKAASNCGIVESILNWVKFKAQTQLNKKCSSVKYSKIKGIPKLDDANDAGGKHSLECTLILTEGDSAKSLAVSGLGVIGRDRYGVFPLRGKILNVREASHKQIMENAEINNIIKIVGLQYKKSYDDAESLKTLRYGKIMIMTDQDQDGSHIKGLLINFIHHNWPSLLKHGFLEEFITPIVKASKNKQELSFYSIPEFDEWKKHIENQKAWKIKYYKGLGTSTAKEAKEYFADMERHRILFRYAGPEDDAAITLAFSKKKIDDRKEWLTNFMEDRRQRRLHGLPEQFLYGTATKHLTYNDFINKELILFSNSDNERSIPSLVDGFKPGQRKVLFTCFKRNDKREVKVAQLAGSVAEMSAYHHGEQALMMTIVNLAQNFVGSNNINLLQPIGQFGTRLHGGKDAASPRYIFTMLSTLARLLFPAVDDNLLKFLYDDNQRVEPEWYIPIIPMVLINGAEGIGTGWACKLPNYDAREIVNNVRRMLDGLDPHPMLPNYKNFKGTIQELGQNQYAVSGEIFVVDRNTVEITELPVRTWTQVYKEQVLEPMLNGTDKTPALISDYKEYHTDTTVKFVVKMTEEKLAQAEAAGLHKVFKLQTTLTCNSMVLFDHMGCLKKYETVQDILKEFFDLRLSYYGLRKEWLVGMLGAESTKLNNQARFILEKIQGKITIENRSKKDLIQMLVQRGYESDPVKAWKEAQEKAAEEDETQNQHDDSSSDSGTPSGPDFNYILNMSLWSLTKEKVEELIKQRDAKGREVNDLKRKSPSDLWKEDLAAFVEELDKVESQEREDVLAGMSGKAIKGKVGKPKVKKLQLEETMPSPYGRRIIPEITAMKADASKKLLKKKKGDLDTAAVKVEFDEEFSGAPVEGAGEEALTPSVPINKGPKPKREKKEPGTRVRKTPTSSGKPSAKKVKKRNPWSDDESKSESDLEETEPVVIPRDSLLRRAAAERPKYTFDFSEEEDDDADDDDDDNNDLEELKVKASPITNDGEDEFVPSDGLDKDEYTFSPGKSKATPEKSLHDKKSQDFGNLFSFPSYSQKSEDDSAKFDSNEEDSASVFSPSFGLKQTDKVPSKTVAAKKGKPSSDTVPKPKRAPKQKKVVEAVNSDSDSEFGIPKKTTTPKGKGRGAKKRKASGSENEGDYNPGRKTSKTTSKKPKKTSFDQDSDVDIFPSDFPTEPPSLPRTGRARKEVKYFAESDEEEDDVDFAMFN

| MNEC [2] [µM] | Compound | other results |
| --- | --- | --- |
|  | Cc1cc(=O)oc2cc(SCc3n[nH]c4cccc(OCc5ccc(C(C)(C)C)cc5)c34)ccc12 | MNEC [1]: 0.062 µM |
| 25 | Cc1cc(=O)oc2cc(SCc3n[nH]c4ccccc34)ccc12 |  |
|  | NCc1nc2ccccc2[nH]1 | inhibition [3]: 65% |
| 41 | c1ccc(-c2[nH]nc3ccccc23)cc1 |  |
